Measured values from patent publication US20150072935A1, “COMPOSITION AND EXTERNAL APPLICATION FOR ACCELERATION OF MUSCLE DIFFERENTIATION AND IMPROVING OF MUSCLE MASS” (NEOPHARM CO., LTD., priority 2013, published 2015).
Numbered stars: 1 amine (or outer) side, 2 acyl side, 3 side chain; on linkers, the order of the positions; unused ones are H or OH. Square brackets hold non-standard residues; d marks the D form. Peptide text beside a SMILES is read from it. * marks the point of attachment. ξ: configuration not given here. Biotin = O=C1N[C@H]2[C@H](CS[C@H]2CCCCC(=O)*)N1; X1 = O=C(C(CC1=NCNC1)N[*:1])[*:2]; ξW = NC(Cc1c[nH]c2ccccc12)C(=O)O; ξF = NC(Cc1ccccc1)C(=O)O; ξK = NCCCCC(N)C(=O)O; ξA = CC(N)C(=O)O

Assays:
C2C12 myoblast cells [1] = assay: Muscle differentiation promotion in C2C12 myoblast cells, western blotting of muscle proteins, concentration dependence; assay type: cell-based; details: differentiation medium with 2% horse serum, 0, 10 and 100 uM, after 3 days of differentiation induction, western blotting (FIG. 1)
Procedure: Undifferentiated C2C12 myoblast cells were cultured in a dish having a diameter of 100 mm using a Dulbecco's modified Eagle's medium (DMEM) with 10% fetal bovine serum (FBS). When the cells covered about 70% of an area, the cells were seeded in a 6-well dish at 8×10^5/well and cultured until the cells covered 90% of an area. Thereafter, muscle differentiation was induced using a differentiation medium with 2% horse serum. In this case, the cells were treated with a myotide (Chemical Formula 2, Incospharm Corp.) composition (0.1% DMSO in phosphate buffer saline) of the present invention at contents of 0, 10, and 100 uM. The differentiation medium was changed into a new differentiation medium containing […] every 24 hours, and after 3 days of differentiation induction, muscles cell lysis was performed using a cell lysis buffer, followed by western blotting. In order to confirm a degree of muscle differentiation, protein expression amounts of myosin heavy chain I, caveolin-3, and myogenin, which are representative protein of muscles, were observed. […] Therefore, the composition according to the present invention promoted muscle differentiation.

C2C12 myoblast cells [2] = assay: Muscle differentiation promotion in C2C12 myoblast cells depending on differentiation time, western blotting; assay type: cell-based; details: differentiation medium with 2% horse serum, 50 uM, after 1, 2 and 3 days of differentiation induction, western blotting (FIG. 2)
Procedure: Undifferentiated C2C12 myoblast cells were cultured in a dish having a diameter of 100 mm using a DMEM with 10% fetal bovine serum (FBS). When the cells covered about 70% of an area, the cells were seeded in a 6-well dish at 8×10^5/well and cultured until the cells covered 90% of an area. Thereafter, muscle differentiation was induced using a differentiation medium with 2% horse serum. In this case, the cells were treated with a myotide (Chemical Formula 2, Incospharm Corp.) composition (0.1% DMSO in phosphate buffer saline) of the present invention at a content of 50 uM. After 1, 2, and 3 days of differentiation induction, cell lysis was performed using a lysis buffer, and a degree of muscle differentiation was confirmed by western blotting.

Compound: CC(NC(=O)C(Cc1c[nH]c2ccccc12)NC(=O)C(CC1=NCNC1)NC(=O)CCCC[C@@H]1SC[C@@H]2NC(=O)N[C@@H]21)C(=O)NC(Cc1c[nH]c2ccccc12)C(=O)NC(Cc1ccccc1)C(=O)NC(CCCCN)C(N)=O (some centres unmarked) [myotide] (Biotin-[X1][ξW][ξA][ξW][ξF][ξK]-NH2)
- expression of muscle proteins (myosin heavy chain I, caveolin-3, myogenin) (C2C12 myoblast cells [1]): concentration-dependently increased
- expression of muscle proteins (myosin heavy chain I, caveolin-3, and myogenin) (C2C12 myoblast cells [2]): increased
